Experimental data published in PubChem BioAssay (NCI).
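96-well plates; 48 h exposure; 5 concentrations. Endpoints by linear interpolation between flanking doses. Not reached: highest tested concentration assigned. GI50 = concentration required for 50% inhibition of growth. TGI is the concentration that stops growth completely.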 *1 amine or outer side, *2 acyl side, *3 side chain or, on linkers, in order; H or OH if unused. Where a SMILES comes first, the peptide text is derived from it. Bridges are numbered along the chain shown (N, C = ends). [ ]: non-standard residue; d: D form. The star is where a group is joined. Phe(3,5-F2) = N[C@@H](Cc1cc(F)cc(F)c1)C(=O)O; Pro(4R-Me) = C[C@H]1CN[C@H](C(=O)O)C1; aThr = C[C@H](O)[C@H](N)C(=O)O; Pip = O=C(O)[C@@H]1CCCCN1; X10 = Fc1cc(C2CC2)ccc1N*; CO = O=C([*:1])[*:2]

What was measured:
Test in all cases: DTP human tumour cell line panel, 48 h
786-0 renal = test system: 786-0 renal
CCRF-CEM leukemia = test system: CCRF-CEM leukemia
HCC-2998 colon = test system: HCC-2998 colon
K-562 leukemia = test system: K-562 leukemia
MCF7 breast = test system: MCF7 breast
NCI-H522 lung = test system: NCI-H522 lung
RXF 393 renal = test system: RXF 393 renal
SK-MEL-28 melanoma = test system: SK-MEL-28 melanoma
SNB-75 CNS = test system: SNB-75 CNS
UACC-62 melanoma = test system: UACC-62 melanoma

Row | Structure (SMILES) | TGI (786-0 renal) [µM] | TGI (CCRF-CEM leukemia) [µM] | TGI (HCC-2998 colon) [µM] | TGI (K-562 leukemia) [µM] | TGI (MCF7 breast) [µM] | TGI (NCI-H522 lung) [µM] | TGI (RXF 393 renal) [µM] | TGI (SK-MEL-28 melanoma) [µM] | TGI (SNB-75 CNS) [µM] | TGI (UACC-62 melanoma) [µM] | GI50 (786-0 renal) [µM] | GI50 (CCRF-CEM leukemia) [nM] | GI50 (HCC-2998 colon) [nM] | GI50 (K-562 leukemia) [nM] | GI50 (MCF7 breast) [nM] | GI50 (NCI-H522 lung) [nM] | GI50 (RXF 393 renal) [µM] | GI50 (SK-MEL-28 melanoma) [µM] | GI50 (SNB-75 CNS) [nM] | GI50 (UACC-62 melanoma) [µM]
1 | O=[N+]([O-])c1ccc2c(c1)/C(=N/N=C1c3ccccc3Cc3ccccc31)c1cc([N+](=O)[O-])cc([N+](=O)[O-])c1-2 | 3.41 | 5.55 | 12.8 | 9.41 | 3.64 | 3.25 | 8.59 | 9.05 | 9.28 | 6.46 | – | – | – | – | – | – | – | – | – | –
2 | Nc1ccccc1C#C/C=C\C#Cc1ccccc1OC(F)(F)F | 21 | 23.2 | 14.7 | > 100 | > 100 | 14 | 23.9 | 36.8 | 7.85 | 21 | 5.48 | 1110 | 2930 | 2310 | 3670 | 3470 | 4.39 | 7.55 | 2470 | 5.94
3 | C[C@@H]1C[C@H]2C(=O)O[C@@H](C)[C@H](NC(=O)[C@H](Cc3cc(F)cc(F)c3)NC(=O)Nc3ccc(C4CC4)cc3F)C(=O)N3CCC[C@H]3C(=O)N3CCCC[C@H]3C(=O)N[C@@H](C)C(=O)N2C1 ({X10-CO}-[Phe(3,5-F2)][aThr]P[Pip]A[Pro(4R-Me)]; ester 2-C) | > 38.4 | > 100 | 1.78 | > 52.3 | 13.9 | – | 3.99 | 4.99 | 49.9 | 4.37 | 0.0817 | 52.2 | 40.2 | 34.6 | 38.1 | 44.1 | 0.233 | 0.0781 | 48.5 | 0.0512
4 | NC(N)=NS(=O)(=O)c1ccc(Nc2c3ccccc3nc3c(C(=O)NCCO)cccc23)cc1 | – | > 100 | – | – | – | – | – | – | 55.2 | – | 21 | 19900 | 92.8 | 35100 | 13500 | 16600 | 19.6 | 20.3 | – | 18.1
5 | O=C(Nc1ccc(F)cc1)Nc1ccc(Cl)c([N+](=O)[O-])c1 | 13.2 | > 100 | 14.3 | > 100 | 11.9 | 10.8 | 6.71 | 14.2 | > 100 | 13.2 | 3.37 | 3300 | 3710 | 3200 | 2660 | 2440 | 1.75 | 3.77 | 5930 | 3.04
6 | COc1cc2c(cc1OCCCCN1CCN(CC(=O)Nc3ccc(Cl)cc3C(=O)c3ccccc3Cl)CC1)N=CC1CCCN1C2=O (stereo not given) | 0.456 | 0.434 | 0.343 | 2.82 | 0.567 | 0.316 | 0.388 | 0.453 | 0.572 | 0.355 | 0.205 | 159 | 194 | 208 | 167 | 107 | 0.186 | 0.229 | 223 | 0.186
7 | Cc1ccc(CN2CCC(C(=O)Nc3ccc(-c4cc5ccccc5[nH]4)cc3)CC2)o1 | > 100 | > 100 | > 100 | > 100 | > 100 | > 100 | > 100 | > 100 | 33.1 | > 100 | 98.9 | > 100000 | > 100000 | > 100000 | > 100000 | > 100000 | > 100 | 88.9 | 12700 | 45.5
8 | Fc1ccc(NC(=S)SCc2ccc3c(c2)OCO3)cc1F | 72.4 | 77.3 | 71.5 | 59 | 36.2 | 35.4 | 32.2 | 13 | 66.8 | 27.3 | – | – | – | – | – | – | – | – | – | –
9 | C=CC(=O)Nc1cc(Nc2ncc(C(=O)OC(C)C)c(-c3cn(C)c4ccccc34)n2)c(OC)cc1N(C)CCN(C)C | 12.9 | 17.8 | 7.75 | > 23.4 | 7.62 | 5.74 | 6.62 | 6.55 | 10.3 | 7 | 3.15 | 3180 | 2300 | 2220 | 2120 | 20 | 1.86 | 2.43 | 1930 | 2.34
10 | C[N+](C)(C)CC(=O)N/N=C(/CC(=O)CC(C1=C(O)c2ccccc2OC1)c1ccccc1)C(=O)Nc1cccc(Cl)c1 (stereo not given) | > 100 | > 100 | > 100 | > 100 | > 100 | > 100 | > 100 | > 100 | > 100 | > 100 | – | – | – | – | – | – | – | – | – | –
11 | C=CCO[C@H]1CO[C@H]2[C@@H]1OC[C@@H]2Oc1ccc(Nc2ccnc(Nc3ccc(O[C@H]4CO[C@H]5[C@@H]4OC[C@@H]5OCC=C)c(Cl)c3)n2)cc1Cl | 3.37 | 3.43 | 3.43 | 1.9 | 3.38 | 4.24 | 3.1 | 3.16 | 3.31 | 3.32 | 1.87 | 652 | 1940 | 378 | 1560 | 1960 | 1.69 | 1.73 | 1860 | 1.81
12 | C=C(C)C(OC)C(O)CC1(C)CC(O)CC(C)(C2CCC3OC(C4(C)CCC(Br)C(C)(C)O4)CCC3(C)O2)O1 (stereo not given) | 33.6 | 55.8 | 30.1 | > 68.5 | 42.3 | 55.8 | 40.4 | 50 | > 61.5 | 39.5 | 17.8 | 21300 | 14800 | 20700 | 19900 | 18200 | 18.3 | 23.6 | 27400 | 19
13 | O=C(Nc1ccc(-n2ccc3c(NC(=O)c4ccccc4)nccc32)cc1)c1ccc(Cl)c(C(F)(F)F)c1 | 9.93 | 2.17 | 10.4 | > 17.2 | 1.24 | 9.59 | 9.64 | 14.1 | 16.5 | 9.79 | 0.606 | 128 | 1600 | 213 | 288 | 811 | 1.01 | 4.99 | 625 | 0.576
14 | O=C1NC(=NCCc2cccc(F)c2)S/C1=C\c1ccc2ncccc2c1 | > 25 | > 25 | > 25 | > 25 | > 25 | 24.9 | > 25 | > 25 | > 21.9 | > 25 | 7.15 | 1150 | > 25000 | 1010 | 766 | 3590 | 4.4 | > 21.4 | 3790 | 5.41
15 | Cc1ccc2c(C)c3c(ccc4ccccc43)c[n+]2c1 | > 100 | 38.9 | 25.5 | 47.3 | 25.9 | 38.8 | > 100 | 18.4 | 40.3 | 22 | 20.1 | 8890 | 8060 | 9300 | 629 | 15500 | 41.5 | 4.68 | 11900 | 8.88
16 | CC1CCc2nc[nH]c(=O)c21 (stereo not given) | > 100 | > 100 | > 100 | > 100 | > 100 | > 100 | > 100 | > 100 | > 100 | > 100 | > 100 | > 100000 | > 100000 | > 100000 | > 100000 | > 100000 | > 100 | > 100 | > 100000 | > 100
17 | NS(=O)(=O)OC[C@@H]1C[C@@H](n2ccc3c(NC4CCc5ccccc54)ncnc32)C[C@@H]1O (stereo not given in full) | 29.7 | 55.9 | 18.2 | 32.3 | > 100 | 27.3 | 37.1 | > 100 | > 100 | 20.6 | 0.671 | 324 | 2970 | 405 | 38.6 | 3310 | 11.2 | 3.94 | 20800 | 0.0856
18 | CCN1/C(=C\c2cc[n+](CC)c3ccccc23)C=Cc2ccccc21 | 12 | 13.4 | 2.61 | 12.8 | 1.85 | 10.3 | 4.27 | 2.33 | 0.871 | 1.27 | 0.465 | 85.9 | 141 | 47.7 | 114 | 197 | 0.333 | 0.275 | 169 | 0.179
